# Data as given in patent US11976066B1 (priority 2023, dated 2024).
# System: multidrug-resistant (MDR) strains of Mycobacterium tuberculosis
# Test: microbe, parasite or virus in culture
# Assay type: cell-based
# Conditions: 192 h, read-out: MIC MDR-TB, MDR strains, REMA, 8 days incubation at 37° C, Middlebrook 7H9 broth
row,SMILES,MIC
1,"CCOC(=O)c1cc(C(=O)c2ccc(F)cc2)n2ccc(N)cc12 [Compound 3a, Ethyl 7-amino-3-(4-fluorobenzoyl)indolizine-1-carboxylate]",32 µg/mL
2,"CCOC(=O)c1cc(C(=O)c2ccccc2[N+](=O)[O-])n2ccc(N)cc12 [Compound 3b, Ethyl 7-amino-3-(2-nitrobenzoyl)indolizine-1-carboxylate]",~16 µg/mL
3,"COC(=O)c1c(C(=O)OC)c2cc(N)ccn2c1C(=O)c1ccc(OC)cc1 [Compound 3d, Dimethyl 7-amino-3-(4-methoxybenzoyl)indolizine-1,2-dicarboxylate]",~32 µg/mL
4,"CCOC(=O)c1cc(C(=O)c2ccc(Br)cc2)n2ccc(N)cc12 [Compound 3e, Ethyl 7-amino-3-(4-bromobenzoyl)indolizine-1-carboxylate]",~64 µg/mL
